Patent publication US10246733B2, “Assay and method for quantitating carbonic anhydrase activity and assessing red blood hemolysis” (CASE WESTERN RESERVE UNIVERSITY, priority 2015, dated 2019)

Key:
hemolysate released CA = test: Stopped-flow out-of-equilibrium CA assay on mouse hemolysate; type: biochemical
From the text: (§1) [drawing 3] causing pH to rise exponentially.
Adult C57/BL6 mice (8 to 16 weeks old) were sacrificed by cervical dislocation and blood was immediately collected by cardiac puncture using a 1-mL syringe (Becton, Dickinson and Co., Franklin Lakes, N.J., USA) with a 23 gauge PrecisionGlide needle (Becton, Dickinson and Co.). Prior to blood collection the syringe and needle were rinsed with 0.9% sodium heparin (H4784, Sigma-Aldrich). The blood was transferred to a 1.5-mL microcentrifuge tube, centrifuged in a Beckman Microfuge 16 Microcentrifuge (Beckman, Brea, Calif.) at 600×g for 10 min and the resulting supernatant and buffy coat were removed. To remove any residual extracellular Hb, the pelleted red blood cells (RBCs) were resuspended—in solution A to a 10% hematocrit (Hct)—and centrifuged at 600×g for 5 minutes. This process was repeated 4×. […]
A solution of isolated Hb was obtained by osmotic lysis of 20 μL of freshly prepared mouse RBCs (see above) in pure H2O (1:8 dilution), followed by centrifugation at 15000×g for 5 minutes in a Beckman Microfuge 16 Microcentrifuge, at RT room temperature. […] The supernatant (cleared of cellular debris) then was removed and transferred to a clean 1.5 mL Eppendorf tube for a The Hb concentration of the supernatant was spectroscopic determination of [Hb] using the visible absorbance spectroscopy as described above. […]

[1] = system: intact RBCs and hemolysate released CA; test: Stopped-flow out-of-equilibrium CA assay on mixtures of intact and hemolyzed mouse RBCs; type: biochemical
From the text: as §1
Adult C57/BL6 mice (8 to 16 weeks old) were sacrificed by cervical dislocation and blood was immediately collected by cardiac puncture using a 1-mL syringe (Becton, Dickinson and Co., Franklin Lakes, N.J., USA) with a 23 gauge PrecisionGlide needle (Becton, Dickinson and Co.). Prior to blood collection the syringe and needle were rinsed with 0.9% sodium heparin (H4784, Sigma-Aldrich). The blood was transferred to a 1.5-mL microcentrifuge tube, centrifuged in a Beckman Microfuge 16 Microcentrifuge (Beckman, Brea, Calif.) at 600×g for 10 min and the resulting supernatant and buffy coat were removed. To remove any residual extracellular Hb, the pelleted red blood cells (RBCs) were resuspended—in solution A to a 10% hematocrit (Hct)—and centrifuged at 600×g for 5 minutes. This process was repeated 4×. After the final wash the RBCs were resuspended in solution A to a final Hct of ˜20% to ˜30%.
A solution of isolated Hb was obtained by osmotic lysis of 20 μL of freshly prepared mouse RBCs (see above) in pure H2O (1:8 dilution), followed by centrifugation at 15000×g for 5 minutes in a Beckman Microfuge 16 Microcentrifuge, at RT room temperature. This centrifugation step separated the cellular debris from the Hb containing supernatant. The supernatant (cleared of cellular debris) then was removed and transferred to a clean 1.5 mL Eppendorf tube for a The Hb concentration of the supernatant was spectroscopic determination of [Hb] using the visible absorbance spectroscopy as described above.
Simulated degrees of hemolysis (0-up to 100%) were achieved by mixing different proportions of freshly prepared, ostensibly “intact” RBCs and a lysate (representing 100% lysis), while maintaining the total Hb concentration at 5 μM (Table 2). For example, the mixture simulating ostensibly 0% hemolysis contained 5 μM Hb from RBCs. The mixture simulating ostensibly 50% hemolysis contained 2.5 μM Hb from RBCs and 2.5 μM Hb from the lysate supernatant (added to the RBC mixture in a dilution of ˜1:400 to ˜1:4000, depending on the [Hb]). […]

[2] = Calibration of pH indicator dye (pK from fluorescence-excitation ratio titration curve); type: physicochemical; settings: 10° C., five sets of experiments, ± SD
Experimental: We calibrated the pH indicator dye pyranine at 10° C. by mixing in the SF device two identical solutions that were either the pH-7.50 “pH calibration solution for dye” listed in (Table 1), or variants thereof obtained by titrating the pH as outlined in a footnote to (Table 1). For each pH value X, we computed (I460/I415)pHx as described in the previous section. We fitted the following theoretical titration curve to our experimental data:
[formula] which normalizes the data to the value observed at pH 7.5, and forces the function to have a value of unity at this pH.
We used an iterative non-linear least-squares method to determine b and pK. […] The best-fit values were 7.11±0.01 (SD) for the pK, and 1.39±0.01(SD) for b. We used these values of pK and b and the values for ratio of (I460/I415) in each experiment to calculate pH.

[3] = cited from earlier work

Row | Structure (SMILES) | krx (rate constant of HCO3- + H+ -> CO2 + H2O reaction) in presence of ACZ (hemolysate released CA; 10 μM ACZ in syringe opposite to hemolysate (5%-100% relative amount), 10° C., reduced to the uncatalyzed value) [s-^1] | time for pHo to reach ~7.5 with ACZ (hemolysate released CA; ACZ in solution opposite to hemolysate (FIG. 3D)) [s] | extracellular CA enzyme activity with ACZ ([1]; 10 μM ACZ in syringe opposite to RBCs) | krx (rate constant of HCO3- + H+ -> CO2 + H2O reaction) in presence of ACZ ([1]; 10 μM ACZ in syringe opposite to RBCs (5%-100% hemolysis of RBCs), 10° C., reduced to the uncatalyzed value) [s-^1] | time for pHo to reach ~7.5 with ACZ ([1]; ACZ in solution opposite to RBCs (FIG. 4D)) [s] | pK (best-fit value) [2] | PKa in previous study [3]
1 | CC(=O)Nc1nnc(S(N)(=O)=O)s1 [ACZ, acetazolamide] | ~0.02 | ~200 | totally blocked | ~0.02 | ~200 |  | 
2 | O=S(=O)([O-])c1cc(O)c2ccc3c(S(=O)(=O)[O-])cc(S(=O)(=O)[O-])c4ccc1c2c34.[Na+].[Na+].[Na+] [pyranine] |  |  |  |  |  | 7.11±0.01 | around 7.3
